According to a compilation of properties of binary mixtures (doi:10.1021/acs.jpcb.5b11900):

Experiment: xn = mol fraction of the nth substance listed
Settings: 101 kPa

CC[NH2+]CC.O=[N+]([O-])[O-] + CC[NH3+].O=[N+]([O-])[O-]
Settings | electrical conductivity [S/m] | viscosity [mPa·s]
293.15 K, x1 = 0.0499 | 1.8 | 44.4
293.15 K, x1 = 0.1499 | 1.69 | 45.4
293.15 K, x1 = 0.1999 | 1.55 | 49.7
293.15 K, x1 = 0.2501 | 1.59 | 46
293.15 K, x1 = 0.2998 | 1.55 | 45.6
298.15 K, x1 = 0.0499 | 2.1 | 37.2
298.15 K, x1 = 0.0998 | 2.02 | 36.2
298.15 K, x1 = 0.1499 | 1.99 | 37.9
298.15 K, x1 = 0.1999 | 1.83 | 41.3
298.15 K, x1 = 0.2998 | 1.87 | 37.9
298.15 K, x1 = 0.3501 | 1.72 | 41.2
303.15 K, x1 = 0.0499 | 2.43 | 31.5
303.15 K, x1 = 0.0998 | 2.34 | 30.6
303.15 K, x1 = 0.1499 | 2.31 | 31.9
303.15 K, x1 = 0.1999 | 2.12 | 34.7
303.15 K, x1 = 0.2501 | 2.18 | 32.2
303.15 K, x1 = 0.2998 | 2.18 | 31.9
303.15 K, x1 = 0.3501 | 2 | 34.5
308.15 K, x1 = 0.0998 | 2.69 | 26.2
308.15 K, x1 = 0.1499 | 2.64 | 27.3
308.15 K, x1 = 0.1999 | 2.44 | 29.4
308.15 K, x1 = 0.2501 | 2.5 | 27.4
308.15 K, x1 = 0.2998 | 2.5 | 27.2
308.15 K, x1 = 0.3501 | 2.3 | 29.2
313.15 K, x1 = 0.0499 | 3.16 | 23.2
313.15 K, x1 = 0.0998 | 3.06 | 22.4
313.15 K, x1 = 0.1499 | 3.01 | 23.4
313.15 K, x1 = 0.2501 | 2.84 | 23.4
313.15 K, x1 = 0.2998 | 2.84 | 23.3
318.15 K, x1 = 0.0499 | 3.55 | 20.2
318.15 K, x1 = 0.1999 | 3.15 | 21.8
318.15 K, x1 = 0.2501 | 3.2 | 20.4
318.15 K, x1 = 0.3501 | 2.97 | 21.6
323.15 K, x1 = 0.0499 | 3.97 | 17.8
323.15 K, x1 = 0.0998 | 3.85 | 17.3
323.15 K, x1 = 0.2501 | 3.59 | 17.8
323.15 K, x1 = 0.2998 | 3.59 | 17.8
323.15 K, x1 = 0.3501 | 3.34 | 18.8
328.15 K, x1 = 0.0499 | – | 15.7
328.15 K, x1 = 0.1499 | – | 15.8
328.15 K, x1 = 0.1999 | – | 16.7
328.15 K, x1 = 0.2501 | – | 15.7
328.15 K, x1 = 0.3501 | – | 16.5
333.15 K, x1 = 0.0499 | – | 13.9
333.15 K, x1 = 0.0998 | – | 13.6
333.15 K, x1 = 0.1499 | – | 14
333.15 K, x1 = 0.1999 | – | 14.7
333.15 K, x1 = 0.2501 | – | 13.9
333.15 K, x1 = 0.2998 | – | 13.9
333.15 K, x1 = 0.3501 | – | 14.6
338.15 K, x1 = 0.0499 | – | 12.5
338.15 K, x1 = 0.0998 | – | 12.1
338.15 K, x1 = 0.1499 | – | 12.5
338.15 K, x1 = 0.1999 | – | 13.1
338.15 K, x1 = 0.2501 | – | 12.5
338.15 K, x1 = 0.3501 | – | 13
343.15 K, x1 = 0.0998 | – | 10.8
343.15 K, x1 = 0.1999 | – | 11.9
343.15 K, x1 = 0.2501 | – | 11.2
343.15 K, x1 = 0.2998 | – | 10.9
343.15 K, x1 = 0.3501 | – | 11.7
348.15 K, x1 = 0.0998 | – | 9.8
348.15 K, x1 = 0.1499 | – | 10.1
348.15 K, x1 = 0.1999 | – | 10.7
348.15 K, x1 = 0.2501 | – | 10.1
348.15 K, x1 = 0.2998 | – | 9.6
348.15 K, x1 = 0.3501 | – | 10.5
353.15 K, x1 = 0.0499 | – | 9.2
353.15 K, x1 = 0.2501 | – | 9.14
353.15 K, x1 = 0.2998 | – | 8.69

CC[NH3+].O=[N+]([O-])[O-] + CC[NH+](CC)CC.O=[N+]([O-])[O-]
x2 = 0
Settings | electrical conductivity [S/m] | viscosity [mPa·s]
303.15 K | 2.6 | 31
308.15 K | 2.97 | 26.5
318.15 K | 3.78 | 20
328.15 K | – | 15.6
333.15 K | – | 13.8
338.15 K | – | 12.5
343.15 K | – | 11.2
348.15 K | – | 10.2
353.15 K | – | 9.2
